{
  "source": "patent US9072750B2",
  "about": "“Use of prostaglandins F2Alpha and analogues for the healing of corneal and conjunctival lesions” (priority 2009, dated 2015)",
  "key": {"[1]": {"system": "human corneal epithelial (HCE) cells", "assay": "Scraping wound closure assay on human corneal epithelial cell monolayer", "format": "cell-based", "settings": "24 h post scraping", "description": "Brief description of the protocol: human corneal epithelial (HCE) cells (100 000 cells per well) were plated in 6-well plates and cultured until confluence. At confluence the cell monolayer was scraped with a yellow tip, the medium removed and incubated for 30 min with 1/10 dilutions of the different test articles (PBS (phosphate buffer solution), Xalatan® (aqueous solution of latanoprost at 0.005%), 0.02% BAK (benzalkonium chloride aqueous solution), and the Latanoprost Emulsion of the invention (with 0.005% latanoprost). Following the treatment, test article dilutions were removed and replaced by fresh culture medium. The scraping closure was assessed 2 and 24 h post treatment. Immunohistology of proliferation marker (Ki67) was also performed on cells cultured for 24 h post scraping."}, "Sprague-Dawley rats": {"system": "Sprague-Dawley rats", "assay": "Corneal scraping (deshepithelization) wound healing model in the rat, repeated instillations", "format": "in vivo", "protocol": "Brief description of the protocol: 16 male Sprague-Dawley rats weighting 100 to 125 g were randomly assigned to 4 groups (4 rats per group (Gp)): Gp1, Phosphate buffer solution (PBS); Gp2, 0.02% benzalkonium chloride (BAK); Gp3, Xalatan®; Gp4, Latanoprost Emulsion. Following general and local anesthesia with ketamine/xylazine and topical Oxybucaïne, respectively, the upper part of the right eye cornea of each rat was scraped with a surgical scalpel following an application of 50 μl of 50% ethanol solution. The upper corneal and limbal epithelia were removed (at day D0). One drop of Tobrex was instilled immediately after the scraping. 2 and 5 hours post scraping one drop of the different test articles were applied onto the cornea of the right eye. These latter instillations were repeated every day for 4 days, and corneal evaluation with an in vivo confocal microscope (IVCM-HRT) was performed on day 4 after the last instillation. At the end of the experimental procedure (the total duration of the treatment is 5 days; from day D0 to D4), the animals were sacrificed and the eyes harvested to characterize the histological organisation of the treated cornea."}},
  "data": [
    {"substance": "benzalkonium chloride [0.02% BAK solution]", "values": [
      {"measurement": "closure of the cleft (scraping closure), cell survival and migration", "setting": "[1]; 1/10 dilutions (FIGS. 7 & 8)", "value": "no or only little closure"},
      {"measurement": "% of wound closure", "setting": "[1]; 30 min incubation with 1/10 dilutions (FIG. 9)", "value": 8, "unit": "%"},
      {"measurement": "corneal opacity / scarification of the cornea", "setting": "Sprague-Dawley rats; day 4 after scraping, repeated instillations, right eye (FIG. 1)", "value": "scarification of the cornea was dramatic"},
      {"measurement": "in vivo confocal microscopy (IVCM) of superficial epithelium: scar tissue / hypereflectivity", "setting": "Sprague-Dawley rats; rat, in vivo", "value": "scar tissue (hypereflectivity)"}
    ]}
  ]
}
